Literature values in US6713046B1, “Magnetic resonance imaging agents for the delivery of therapeutic agents” (Research Corporation Technologies, priority 1997, dated 2004).

Conditions: thermodynamic stability of the Gd(III) chelate complex; background statement

O=C([O-])CN1CCN(CC(=O)[O-])CCN(CC(=O)O)CCN(CC(=O)[O-])CC1.[Gd+3] [Gd-DOTA]
stability constant (K), formation constant, logK: 28.5
